Measurements taken from US20210292330A1, “PYRROLIDINE-FUSED HETEROCYCLES” (Erasca, Inc., priority 2020, published 2021).

Biological target: T1, KRAS 4B G12C protein (Homo sapiens, UniProt P01116, G12C)
T1 construct: This protein contained 188 amino acids in total, including an N-terminal 6-Histidine tag; made in house; host or cells: E. coli BL21
Experiment: In vitro covalent adduct formation (CAF) assay by LC-MS
Format: binding
Details: compound 10 μM, protein 5 μM, 22° C., percentage of protein bound by the compound
Procedure: In vitro covalent adduct formation assay: Covalent adduct formation (CAF) reactions between Cys12 of the KRAS 4B G12C protein and some of the compounds of Table 1 were measured in vitro using liquid chromatography-mass spectrometry (LC-MS).
Recombinant Human KRAS 4B protein containing the G12C mutation was used in compound screening experiments. This protein contained 188 amino acids in total, including an N-terminal 6-Histidine tag, followed by a Tobacco Etch Virus (TEV) tag, followed by residues 1-169 of the native KRAS 4B sequence. The exact mass of the protein was 21,310 Da as determined by mass spectrometry. The full amino acid sequence is shown below:
The recombinant protein was expressed in E. coli BL21 cells and purified using affinity chromatography via a Ni-NTA column. […] Pure KRAS 4B G12C protein was diluted to a concentration of 5 μM in Tris Buffered Saline, pH 7.4. The compounds were dissolved in DMSO and added to the diluted protein to make a 10 μM concentration. The total DMSO concentration in the reaction was 4%. The reaction was mixed by pipetting and incubated at 22° C. for one hour. Aliquots of the reaction were taken over time and diluted 2:1 in 0.1% formic acid. The intact mass of the protein samples was measured by LC-MS using a QExactive+ mass spectrometer (Thermo Scientific). An amount of 500 ng total protein was injected onto a C8 reverse phase column, eluted with a seven-minute gradient of 30%-90% acetonitrile/0.1% formic acid, and analyzed for intact mass by the mass spectrometer. Adducts identified were confirmed to be within 1 Dalton of the expected mass, and the relative ratios of free:adduct protein were used to quantify the percentage of protein bound by the compound. CAF reactions were run in duplicate, with a typical variability of ±5%.

SMILES | CAF (10 minutes/60 minutes) at 10 micromolar: 10 minutes | CAF (10 minutes/60 minutes) at 10 micromolar: 60 minutes
C=CC(=O)N1CCN(c2nc(OC[C@@H]3CCCN3C)nc3c2CN(Cc2cc(F)ccc2C)C3)[C@@H](C)C1 [1-20] | 0% | 6%
C=C(F)C(=O)N1CCN(c2nc(OC[C@@H]3CCCN3C)nc3c2CN(C2CCc4cccc(Cl)c42)C3)C[C@@H]1CC#N (stereo partly drawn) [1-127] | 64% | 95%
C=CC(=O)N1CCN(c2nc(SC)nc3c2CN(C2CCc4ccccc42)C3)C[C@@H]1CC#N (stereo partly drawn) [1-136] | 16% | 56%
C=CC(=O)N1CCN(c2nc(OC[C@@H]3CCCN3C)nc3c2CN(Cc2cc(O)ccc2C)C3)[C@@H](C)C1 [1-1, 1-[(3S)-4-{6-[(5-hydroxy-2-methylphenyl)methyl]-2-{[(2S)-1-methylpyrrolidin-2-yl]methoxy}-5H,7H-pyrrolo[3,4-d]pyrimidin-4-yl}-3-methylpiperazin-1-yl]prop-2-en-1-one] | 69% | 93%
C=CC(=O)N1CCN(c2nc(OC[C@@H]3CCCN3C)nc3c2CN(Cc2cc(O)ccc2C)C3)C[C@@H]1CC#N [1-40] | 98%/ 98% | 98%/ 98%
C=CC(=O)N1CCN(c2nc(OC[C@@H]3CCCN3C)nc3c2CN(Cc2c(F)cccc2F)C3)C[C@@H]1CC#N [1-61] |  | NA/ 80%
C=CC(=O)N1CCN(c2nc(OC[C@@H]3CCCO3)nc3c2CN(Cc2c(F)cccc2OC)C3)C[C@@H]1CC#N [1-79] | 3% | 23%
C=CC(=O)N1CCN(c2nc(OC[C@@H]3CCCN3C)nc3c2CN(Cc2cc(F)ccc2C)C3)C[C@@H]1CC#N [1-11] | 87% | 98%
C=CC(=O)N1CCN(c2nc(OC[C@@H]3CCCN3C)nc3c2CN(Cc2ccc(F)cc2Cl)C3)C[C@@H]1CC#N [1-96] | 51% | 93%
C=CC(=O)N1CCN(c2nc(OC[C@@H]3CCCN3C)nc3c2CN(C2CCc4ccccc42)C3)C[C@@H]1CO (stereo partly drawn) [1-116] | 2% | 17%
C=CC(=O)N1CCN(c2nc(OC[C@@H]3CCCN3C)nc3c2CN(Cc2cc(OC)ccc2C)C3)[C@@H](C)C1 [1-2] | 0% | 4%
C=CC(=O)N1CC2CC(=O)CC(C1)N2c1nc(OC[C@@H]2CCCN2C)nc2c1CN(C1CCc3ccccc31)C2 (stereo partly drawn) [1-251] | 0%/ 0% | 0%/ 0%
C#CC1CN(c2nc(OC[C@@H]3CCCN3C)nc3c2CN(C2CCc4ccccc42)C3)CCN1C(=O)C=C (stereo partly drawn) [1-121] | 0% | 4%
C=CC(=O)N1CCN(c2nc(OC[C@@H]3CCCN3C)nc3c2CN(C2CCOc4ccccc42)C3)C[C@@H]1CC#N (stereo partly drawn) [1-86] | 59% | 93%
C=CC(=O)N1CCN(c2nc(OC[C@@H]3CCCN3C)nc3c2CN(Cc2c(Cl)cccc2OC(F)F)C3)[C@@H](C)C1 [1-99] | 0% | 6%
C=CC(=O)N1CCN(c2nc(OCCOC)nc3c2CN(C2CCc4ccccc42)C3)C[C@@H]1CC#N (stereo partly drawn) [1-129] | 26% | 64%
C=C(F)C(=O)N1CCN(c2nc(OC[C@@H]3CCCN3C)nc3c2CN(C2CCc4ccccc42)C3)C[C@@H]1CC#N (stereo partly drawn) [1-138] | 38% | 54%
C=CC(=O)N1CCN(c2nc(OC[C@@H]3CCCN3C)nc3c2CN(Cc2nc(OC)ccc2Cl)C3)[C@@H](C)C1 [1-65] | 0% | 2%
C=CC(=O)N1C[C@H](C)N(c2nc(OC[C@@H]3CCCN3C)nc3c2CN(Cc2cc(O)ccc2C)C3)C[C@H]1C [1-18] | 21% | 65%

Next, values leading:

CAF (10 minutes/60 minutes) at 10 micromolar: 10 minutes | CAF (10 minutes/60 minutes) at 10 micromolar: 60 minutes | SMILES
9% | 28% | C=CC(=O)N1CCN(c2nc(Oc3cccc4c3CN(C)C4)nc3c2CN(C2CCc4ccccc42)C3)C[C@@H]1CC#N (stereo partly drawn) [1-174]
52% | 73% | C=CC(=O)N1CCN(c2nc(OC[C@@H]3CCCN3C)nc3c2CN(Cc2ccccc2CC(C)C)C3)C[C@@H]1CC#N [1-191]
0% | 9% | C=CC(=O)N1CCN(c2nc(O[C@@H]3CN(C)C[C@H]3OC)nc3c2CN(Cc2cc(O)ccc2Cl)C3)C2COCC21 (stereo partly drawn) [1-336]
15% | 35% | C#CC[C@H]1CN(c2nc(OC[C@@H]3CCCN3C)nc3c2CN(C2CCc4ccccc42)C3)CCN1C(=O)C=C (stereo partly drawn) [1-144, 1-((2S)-4-(6-(2,3-dihydro-1H-inden-1-yl)-2-(((S)-1-methylpyrrolidin-2-yl)methoxy)-6,7-dihydro-5H-pyrrolo[3,4-d]pyrimidin-4-yl)-2-(prop-2-yn-1-yl)piperazin-1-yl)prop-2-en-1-one]
7% | 36% | C=CC(=O)N1CCN(c2nc(OCC3CC3)nc3c2CN(C2CCc4ccccc42)C3)C[C@@H]1CC#N (stereo partly drawn) [1-142]
88% | 90% | C=CC(=O)N1CCN(c2nc(OC[C@@H]3CCCN3C)nc3c2CN(Cc2c(Cl)ccc(O)c2Cl)C3)C[C@@H]1CC#N [1-321]
41% | 66% | C=CC(=O)N1CCN(c2nc(OC[C@@H]3CCCN3C)nc3c2CN(Cc2cc(O)ccc2Cl)C3)C2COCC21 (stereo partly drawn) [1-315]
17% | 59% | C=CC(=O)N1[C@H](C)CN(c2nc(OC[C@@H]3CCCN3C)nc3c2CN(Cc2c(Cl)ccc(O)c2C)C3)C[C@@H]1C [1-333]
6% | 24% | C=CC(=O)N1CCN(c2nc(Oc3cccnc3C3CC3)nc3c2CN(C2CCc4ccccc42)C3)C[C@@H]1CC#N (stereo partly drawn) [1-173]
0% | 1% | C=CC(=O)N1CCN(c2nc(OC[C@@H]3CCCN3C)nc3c2CN(C2CCc4ccccc42)C3)C[C@@H]1CCC(N)=O (stereo partly drawn) [1-231]
6% | 26% | C=CC(=O)N1CCN(c2nc(OC[C@@H]3CCCN3C)nc3c2CN(C2CCc4ccccc42)C3)CC1 (stereo partly drawn) [1-190]
41% | 52% | C=CC(=O)N1CCN(c2nc(OC[C@@H]3CCCN3C)nc3c2CN(Cc2ccc(F)cc2C(C)C)C3)C[C@@H]1CC#N [1-196]
47% | 79% | C=CC(=O)N1CCN(c2nc(OC[C@@H]3CCCN3C)nc3c2CN(Cc2ccccc2C(C)CC)C3)C[C@@H]1CC#N (stereo partly drawn) [1-188]
7% | 30% | C=CC(=O)N1CCN(c2nc(OC[C@@H]3CCCN3C)nc3c2CN(C2CCc4ccccc42)C3)[C@H](C(N)=O)C1 (stereo partly drawn) [1-182]
0% | 2% | C=CC(=O)N1CCN(c2nc(OC[C@@H]3CCCN3C)nc3c2CN(C2CCc4ccccc42)C3)C[C@@H]1Cn1cccn1 (stereo partly drawn) [1-220]
76% | 91% | C=C(F)C(=O)N1CCN(c2nc(OC[C@@H]3CCCN3C)nc3c2CN(Cc2c(Cl)ccc4nc[nH]c24)C3)C[C@@H]1CC#N [1-320]
94% | 96% | C=CC(=O)N1CCN(c2nc(OC[C@@H]3CCCN3C)nc3c2CN(Cc2cc(O)cc4ccccc24)C3)C[C@@H]1CC#N [1-180]
0%/ 0% | 0%/ 0% | C=CC(=O)N1[C@H](C)CN(c2nc(OC[C@@H]3CCCN3C)nc3c2CN(Cc2c(Cl)ccc(O)c2C)C3)C[C@H]1C [1-341]
0%/ 0% | 0%/ 0% | C=C(F)C(=O)N1CCN(c2nc(OCc3cncn3C)nc3c2CN(C2CCc4ccccc42)C3)C[C@@H]1CC#N (stereo partly drawn) [1-140]
